pIC50: −log10 of the molar value.
Experiments:
[1] = tested on: human PBMCs (T cells); assay: Viability of immune cell subpopulations within PBMCs (Annexin V/7 AAD flow cytometry); assay type: cell-based; details: 0-800 μM Coenzyme Q10, 24 hours, PHA-stimulated or unstimulated PBMCs
Procedure: PBMCs isolated from healthy human donor leukopaks were isolated and cryopreserved. To study the effect of Coenzyme Q10, cells were thawed, rested overnight and treated with or without phytohemagglutinin (PHA). PHA is a lectin protein found in plants which activates T cells by inducing mitosis. Various concentrations of Coenzyme Q10 (0, 12.5, 50, 200, 400 or 800 μM) were added to the cells at the same time. 24 hours to 72 hours post-treatment, frequency and viability of immune cell subpopulations was evaluated, as well as proliferative potential, cytokine secretion, and inhibitory receptor surface expression.
The viability of human immune cell subpopulations within PHA-stimulated or unstimulated PBMCs concurrently treated with Coenzyme Q10 was also determined. Cells were treated with 0, 12.5, 50, 200, 400 or 800 μM Coenzyme Q10 for 24 hours. Cell populations and viability was determined by flow cytometry using combinational staining of surface markers using Annexin V/7 AAD stains. Cells from 5 healthy donors were evaluated. Total, cytotoxic and helper T cell viability after treatment with increasing Coenzyme Q10 concentrations show T cell viability increased in response to Coenzyme Q10. FIG. 17A. […]

[2] = tested on: PD-L1 protein on the surface of ovarian cancer cells (SKOV-3); assay: Flow cytometry of PD-L1 protein on the cancer cell surface; assay type: cell-based, human; details: SKOV-3, 72 hours after treatment
Procedure: (§1) Flow cytometry analysis with a fluorescent probe for PD-L1 was used to determine the expression of PD-L1 protein on the surface of various human cancer cell lines. The cells were treated with 100 μM Coenzyme Q10, or the IC50 of Coenzyme Q10 for each cell line. […] The increased PD-L1 levels observed in breast cancer cells in response to Coenzyme Q10 treatment were not due to changes in cell populations.
(§2) Human pancreatic (MIA PaCa-2), ovarian (SKOV-3), and lung (A549) cancer cell lines treated with Coenzyme Q10 were also analyzed by flow cytometry to determine PD-L1 protein expression on the cancer cell surface.

[3] = tested on: PD-L1 protein on the surface of pancreatic cancer cells (MIA PaCa-2); assay: as above; assay type: cell-based, human; details: MIA PaCa-2, 72 hours after treatment
Procedure: as §1, §2

[4] = tested on: PD-L1 protein on the surface of lung cancer cells (A549); assay: as above; assay type: cell-based, human; details: A549, 72 hours after treatment
Procedure: as §1, §2

[5] = tested on: human T cells within PBMCs; assay: T cell proliferation by Click-iT EdU flow cytometry; assay type: cell-based; details: 200 μM Coenzyme Q10, 72 hours, EdU final 18 hours
Procedure: Proliferation of T cells was assessed by flow cytometry using Click-iT® EdU technology (Thermo Fisher Scientific, Waltham, Mass.), a proliferation assay that is optimized for fluorescence microscopy applications. In this assay, the modified thymidine analogue EdU is incorporated into newly synthesized DNA and fluorescently labeled with a bright, photostable Alexa Fluor® dye. PBMCs were obtained from three different human donors. PBMCs were incubated with or without PHA for 72 hours while concurrently treated with Coenzyme Q10 (200 μM). 10 μM of EdU was added for the final 18 hours and stained with Invitrogen Alexa Fluor 488 piclyl azide according to the manufacturer's protocol. Cells were then stained with surface marker antibodies for CD3/CD8, or CD3/CD4 to identify cytotoxic T cells or helper T cells, respectively. Cells were then analyzyed by flow cytometry applying gating strategy.

[6] = tested on: tumor associated macrophages (TAMs) in murine Pan02 pancreatic tumors; assay: F4/80 IHC pathological scoring of tumor associated macrophages in Pan02 tumors; assay type: in vivo, mouse
Procedure: Pancreatic tumor samples from mice treated with different doses of Coenzyme Q10 were analyzed for the presence of tumor associated macrophages (TAMs). TAMs are found in close proximity to or within tumors and support tumor growth. C57B1/6 female mice were inoculated with Pan02 cells. When tumors reached a mean volume of 100 mm^3, animals were randomized into four groups and treated with vehicle control or Coenzyme Q10 (25, 50 or 100 mg/kg) twice daily for 21 days. At the end of the study, tumors were removed and subjected to immunohistochemistry (IHC) analysis for TAMs using the F4/80 marker. All slides were subjected to a pathological scoring. […] As shown in FIGS. 28A and 28B, Coenzyme Q10 decreased TAMs in a dose dependent manner.

[7] = tested on: B16F10 skin melanoma cells; assay: Cell viability (CellTiter-Fluor) of mouse syngeneic tumor cell line; assay type: cell-based; details: B16F10, 72 hours, 37° C.
Procedure: (§3) The sensitivity of mouse syngeneic tumor cell lines to Coenzyme Q10 was evaluated in vitro. Six mouse syngeneic tumor cell lines from different tissue types were exposed to increasing concentrations of Coenzyme Q10 (0-25 mM) at 37° C. for 72 hours. Cell viability was measured using CellTiter-Fluor kit (Promega, Madison, Wis.). Graphs and IC50 values were calculated using GraphPad Prism using data for at least three independent experiments. Mouse syngeneic tumor cell lines evaluated were Lewis lung carcinoma (LL2), hepatoma (Hepa1-6) skin melanoma (B16F10), colon cancer (CT26), mammary gland adenocarcinoma (EMT6/P), and renal adenocarcinoma (Renca). As shown in FIGS. 24A-24F, Coenzyme Q10 reduced viability of all of the tumor cell lines in a dose dependent manner.

[8] = tested on: Hepa1-6 hepatoma cells; assay: as above; assay type: cell-based; details: Hepa1-6, 72 hours, 37° C.
Procedure: as §3

[9] = tested on: Renca renal adenocarcinoma cells; assay: as above; assay type: cell-based; details: 72 hours, 37° C.
Procedure: as §3

[10] = tested on: LL/2 Lewis lung carcinoma cells; assay: as above; assay type: cell-based; details: LL/2, 72 hours, 37° C.
Procedure: as §3

[11] = tested on: CT26 colon cancer cells; assay: as above; assay type: cell-based; details: CT26, 72 hours, 37° C.
Procedure: as §3

[12] = tested on: EMT6/P mammary gland adenocarcinoma cells; assay: as above; assay type: cell-based; details: 72 hours, 37° C.
Procedure: as §3

[13] = 25 mg/kg twice daily for 21 days
[14] = 50 mg/kg twice daily for 21 days
[15] = 100 mg/kg twice daily for 21 days

pIC50 [7]: 2.87
pIC50 [8]: 3.04
pIC50 [9]: 2.43
pIC50 [10]: 3.62
pIC50 [11]: 2.72
pIC50 [12]: 2.66
SMILES: COC1=C(OC)C(=O)C(C/C=C(\C)CC/C=C(\C)CC/C=C(\C)CC/C=C(\C)CC/C=C(\C)CC/C=C(\C)CC/C=C(\C)CC/C=C(\C)CC/C=C(\C)CCC=C(C)C)=C(C)C1=O [Coenzyme Q10]
T cell viability (total, cytotoxic and helper T cells) [1]: increased
Amount of PD-L1 protein on the cell surface [2]: small but significant increase
Percentage of cells having PD-L1 protein on their surface [2]: did not significantly change
Amount of PD-L1 protein on the cell surface [3]: significantly increased
Percentage of cells having PD-L1 protein on their surface [3]: significantly increased
Amount of PD-L1 on the cell surface [4]: did not significantly change
Percentage of cells having PD-L1 protein on their surface [4]: did not significantly change
Proliferation of PHA-activated cytotoxic T cells [5]: increased
Percentage of mice with TAM levels Higher than Control [6, 13]: 0%
Percentage of mice with TAM levels Lower than Control [6, 13]: 20%
Percentage of mice with TAM levels Similar to Control [6, 13]: 80%
Percentage of mice with TAM levels Higher than Control [6, 14]: 0%
Percentage of mice with TAM levels Lower than Control [6, 14]: 85.8%
Percentage of mice with TAM levels Similar to Control [6, 14]: 14.3%
Percentage of mice with TAM levels Higher than Control [6, 15]: 0%
Percentage of mice with TAM levels Lower than Control [6, 15]: 44.4%
Percentage of mice with TAM levels Similar to Control [6, 15]: 55.6%
Tumor associated macrophages (TAMs) in tumors ([6]; 25, 50 or 100 mg/kg twice daily for 21 days): decreased
